Earlier results on six compounds are cited in patent US6040300A, “Method of preventing colon cancer with vitamin D3 analogues” (Arch Development Corporation, priority 1995, dated 2000).

SMILES strings stand for the structures.

Data set [1] concerns chemically-induced colonic tumors. The settings on record: in vivo; cited from earlier work.
In a further data set the test system is suppressor T cell. The following applies: cited from earlier work.
The subject of the next data set is c-myc mRNA. The following applies: HL-60 cells; cited from earlier work.
Data set [2] relates to malignant cell lines, including several derived from human colon adenocarcinomas. The settings on record: in vitro; cited from earlier work.
The next data set deals with class II antigens. The following applies: monocytes and lymphocytes; cited from earlier work.
Data set [3] concerns ornithine decarboxylase (ODC). The following applies: induced by various chemical carcinogens, preneoplastic period; cited from earlier work.
Data set [4] has as its system MHC class I and II antigens. The settings on record: colonic tumor formation, AOM model; cited from earlier work.
The next data set concerns AOM metabolism. The settings on record: cited from earlier work.
Data set [5] concerns colon carcinogenesis induced by 1,2-dimethylhydrazine (DMH). The following applies: dietary supplementation; high fat diet; cited from earlier work.

For the compound `C=C1/C(=C\C=C2/CCC[C@]3(C)[C@@H]([C@H](C)CCCC(C)C)CC[C@@H]23)C[C@@H](O)C[C@@H]1O` [1α(OH)D3, 1α-hydroxyvitamin D3], the “protection against chemically-induced colonic tumors” value in data set [1] is “protect against the development of chemically-induced colonic tumors”.
Turning to `C=C1/C(=C\C=C2/CCC[C@]3(C)[C@@H]([C@H](C)CCCC(C)(C)O)CC[C@@H]23)C[C@@H](O)C[C@@H]1O` [1α,25(OH)2 D3, 1α,25-dihydroxyvitamin D3], the “protection against chemically-induced colonic tumors” value in data set [1] is reported as “protect against the development of chemically-induced colonic tumors”. The “suppressor T cell activity” value in the data set on suppressor T cell is on record as “promote suppressor T cell activity”. The “c-myc mRNA expression” value in the data set on c-myc mRNA is listed as “decrease c-myc mRNA expression in HL-60 cells”. In addition, in [2], the inhibition of proliferation entry is “inhibit the proliferation of a number of malignant cell lines in vitro”. In the data set with class II antigens, the “expression of class II antigens” value is “effect the expression of class II antigens by monocytes and lymphocytes”. Besides, the “inhibition of increase in colonic mucosal ODC” value in data set [3] is “inhibit the increase in colonic mucosal ODC”.
With `CN1C(C(=O)Nc2ccccn2)=C(O)c2ccccc2S1(=O)=O` [piroxicam], the “chemopreventive effect paralleled by MHC antigen alterations” value in [4] was “paralleled by alterations in the expression of these antigens”.
As for `c1cn[nH]c1` [pyrazole], the “inhibition of AOM metabolism” value in the data set with AOM metabolism was “inhibition of AOM metabolism”.
On to `C[C@H](CCC(=O)O)[C@H]1CC[C@H]2[C@@H]3[C@@H](O)C[C@@H]4C[C@H](O)CC[C@]4(C)[C@H]3CC[C@]12C` [ursodeoxycholic acid], for which the “chemopreventive effect paralleled by MHC antigen alterations” value in [4] is on record as “paralleled by alterations in the expression of these antigens”.
For `C=C1CC[C@H](O)C/C1=C/C=C1\CCC[C@]2(C)[C@@H]([C@H](C)CCCC(C)C)CC[C@@H]12` [vitamin D3, cholecalciferol], the “inhibition of colon carcinogenesis incidence” value in data set [5] was “inhibit the incidence of colon carcinogenesis”.
